Assay results published in patent US20260217701A1, “SELECTIVE BET INHIBITORS AND USES THEREOF” (Tay Therapeutics Limited, priority 2022, published 2026).
Marks after values point to notes of the source that are not given here.

Assay: EAE study: body weight
Assay type: in vivo, C57BI/6 mice
Conditions: for Mean Body Weight Change (% of Day −1): mean end body weight
Protocol: Experimental Method H: EAE in animals treated with a BET inhibitor and vehicle. Animals were assigned to the groups outlined in Table 38.
Compound A may be formulated as illustrated in Experimental Method A (see Table 2E.). A 40 mg/mL stock solution of Compound A in DMSO was prepared and aliquots stored at −20° C. On each day of preparation an e.g., 0.75 mL aliquot of thawed stock was diluted with an equal volume of DMSO. The remaining vehicle components were added to provide the highest dose and then diluted with vehicle to provide lower doses. A 30 mg/mL stock solution of FTY720 in ethanol was prepared and stored at −20° C. Daily, the stock solution was diluted with room temperature water to a final dosing concentration of 0.6 mg/mL. Formulated Compound A, FTY720 and vehicle were each at room temperature for dosing.
Female C57BI/6 mice (9 weeks old) were acclimated for seven days prior to study initiation. On Day-1, animals were assigned to groups in a balanced manner to achieve similar average weights across the different groups. Chronic EAE was induced in female C57BI/6 mice following immunization with an emulsion of MOG35-55/CFA on Day 0, followed by an injection of pertussis toxin two hours after the initial immunization. On Day 1, a second injection of pertussis toxin was administered 24 hours after the initial immunization. Mice were injected subcutaneously at two sites on the back with the MOG35-55/CFA emulsion (Hooke Kit™ MOG35-55/CFA Emulsion PTX). The first injection site was located approximately 1 cm caudal of the neckline (upper back), and the second injection site was approximately 2 cm cranial of the base of the tail (lower back). The injection volume was 0.1 mL for each injection. The pertussis toxin was administered at the described times through intraperitoneal injection at a concentration of 85 ng/dose for both injections.
Body weight was measured three times a week (Monday, Wednesday, and Friday) starting on Day-1. Animals were scored daily for EAE starting on Day 7. In-between scores were assigned when the clinical signs fell between two below defined scores.

[1] = Compound A 3 mg/kg (Group 3), Day 5
[2] = Compound A 3 mg/kg (Group 3), Day 7
[3] = Compound A 3 mg/kg (Group 3), Day 9
[4] = Compound A 3 mg/kg (Group 3), Day 12
[5] = Compound A 3 mg/kg (Group 3), Day 14
[6] = Compound A 3 mg/kg (Group 3), Day 16
[7] = Compound A 3 mg/kg (Group 3), Day 19
[8] = Compound A 3 mg/kg (Group 3), Day 21
[9] = Compound A 3 mg/kg (Group 3), Day 23
[10] = Compound A 3 mg/kg (Group 3), Day 27
[11] = Compound A 3 mg/kg (Group 3), Day 28
[12] = Compound A 3 mg/kg (Group 3), Day −1
[13] = Compound A 10 mg/kg (Group 4), Day 0
[14] = Compound A 10 mg/kg (Group 4), Day 2
[15] = Compound A 10 mg/kg (Group 4), Day 5
[16] = Compound A 10 mg/kg (Group 4), Day 7
[17] = Compound A 10 mg/kg (Group 4), Day 9
[18] = Compound A 10 mg/kg (Group 4), Day 12
[19] = Compound A 10 mg/kg (Group 4), Day 14
[20] = Compound A 10 mg/kg (Group 4), Day 16
[21] = Compound A 10 mg/kg (Group 4), Day 19
[22] = Compound A 10 mg/kg (Group 4), Day 21
[23] = Compound A 10 mg/kg (Group 4), Day 23
[24] = Compound A 10 mg/kg (Group 4), Day 27
[25] = Compound A 10 mg/kg (Group 4), Day 28
[26] = Compound A 10 mg/kg (Group 4), Day −1

In the case of `Cn1cc(-c2ccccc2)c(-c2cn(C)c(=O)c3[nH]c(-c4cnn(C(F)(F)F)c4)cc23)cc1=O` [Compound A, 6-methyl-4-(1-methyl-2-oxo-5-phenyl-1,2-dihydropyridin-4-yl)-2-(1-(trifluoromethyl)-1H-pyrazol-4-yl)-1,6-dihydro-7H-pyrrolo[2,3-c]pyridin-7-one], the “Mean Body Weight” value [1] is reported as 19.6 g, the “Mean Body Weight (% of Day −1)” value [1] is reported as 97.2 % of Day −1 and the “Mean Body Weight” value [2] is reported as 20.2 g. For the same compound, the “Mean Body Weight (% of Day −1)” value [2] was 100.0 % of Day −1, the “Mean Body Weight” value [3] was 20.5 g and the “Mean Body Weight (% of Day −1)” value [3] was 101.6 % of Day −1. For the same compound, the “Mean Body Weight” value [4] was 20.6 g, the “Mean Body Weight (% of Day −1)” value [4] was 102.1 % of Day −1 and the “Mean Body Weight” value [5] was 20.0 g. The “Mean Body Weight (% of Day −1)” value [5] was 99.5 % of Day −1, the “Mean Body Weight” value [6] was 19.5 g and the “Mean Body Weight (% of Day −1)” value [6] was 96.9 % of Day −1. The “Mean Body Weight” value [7] was 19.5 g, the “Mean Body Weight (% of Day −1)” value [7] was 97.0 % of Day −1 and the “Mean Body Weight” value [8] was 20.3 g. The “Mean Body Weight (% of Day −1)” value [8] was 101.5 % of Day −1, the “Mean Body Weight” value [9] was 20.8 g and the “Mean Body Weight (% of Day −1)” value [9] was 103.9 % of Day −1. The “Mean Body Weight” value [10] was 20.4 g, the “Mean Body Weight (% of Day −1)” value [10] was 101.8 % of Day −1 and the “Mean Body Weight” value [11] was 20.6 g. The “Mean Body Weight (% of Day −1)” value [11] was 103.0 % of Day −1, the “Mean Body Weight” value [12] was 20.2 g and the “Mean Body Weight (% of Day −1)” value [12] was 100.0 % of Day −1. For the same compound, the “Mean Body Weight Change (% of Day −1)” value (Compound A 3 mg/kg) was 103.0*** % of Day −1, the “Mean Body Weight” value [13] was 20.5 g and the “Mean Body Weight (% of Day −1)” value [13] was 101.1 % of Day −1. For the same compound, the “Mean Body Weight” value [14] was 19.8 g, the “Mean Body Weight (% of Day −1)” value [14] was 97.9 % of Day −1 and the “Mean Body Weight” value [15] was 20.0 g. The “Mean Body Weight (% of Day −1)” value [15] was 98.9 % of Day −1, the “Mean Body Weight” value [16] was 20.4 g and the “Mean Body Weight (% of Day −1)” value [16] was 101.0 % of Day −1. For the same compound, the “Mean Body Weight” value [17] was 20.6 g, the “Mean Body Weight (% of Day −1)” value [17] was 101.9 % of Day −1 and the “Mean Body Weight” value [18] was 20.2 g. The “Mean Body Weight (% of Day −1)” value [18] was 99.9 % of Day −1, the “Mean Body Weight” value [19] was 19.6 g and the “Mean Body Weight (% of Day −1)” value [19] was 97.2 % of Day −1. For the same compound, the “Mean Body Weight” value [20] was 19.1 g, the “Mean Body Weight (% of Day −1)” value [20] was 94.7 % of Day −1 and the “Mean Body Weight” value [21] was 20.0 g. For the same compound, the “Mean Body Weight (% of Day −1)” value [21] was 99.1 % of Day −1, the “Mean Body Weight” value [22] was 20.7 g and the “Mean Body Weight (% of Day −1)” value [22] was 102.3 % of Day −1. For the same compound, the “Mean Body Weight” value [23] was 21.1 g, the “Mean Body Weight (% of Day −1)” value [23] was 104.2 % of Day −1 and the “Mean Body Weight” value [24] was 21.0 g. For the same compound, the “Mean Body Weight (% of Day −1)” value [24] was 104.0 % of Day −1, the “Mean Body Weight” value [25] was 21.4 g and the “Mean Body Weight (% of Day −1)” value [25] was 106.0 % of Day −1. The “Mean Body Weight” value [26] was 20.2 g, the “Mean Body Weight (% of Day −1)” value [26] was 100.0 % of Day −1 and the “Mean Body Weight Change (% of Day −1)” value (Compound A 10 mg/kg) was 106.0*** % of Day −1.
